Source: patent US9598387B2 (Southern Research Institute, priority 2012, dated 2017)

Target: D3R (Homo sapiens (Human), UniProt P35462)
Assay: β-Arrestin Recruitment Assay, U2OS DRD3
Type: cell-based
Conditions: antagonist vs EC80 8 nM PD128907, U2OS DRD3 cells; read-out: D3 IC50
Method: Antagonist potency of the compounds against agonist induced recruitment of β-arrestin by D3R and D2LR was measured using DiscoverRx PathHunter eXpress kits. […] After incubation at 37° C. for 90 min, the DiscoveRx detection reagent was added, the plates were incubated at room temperature for 60 min and the luminescence was measured on a Synergy 4 plate reader (BioTek). The data were plotted and the agonist EC80 values were calculated using GraphPad Prism software. For antagonist activity, the cells were plated as described above and treated with multiple concentrations (starting from 500 nM, half log dilution, 10 dose points) of the test compounds in Plating Reagent with 0.1% DMSO.

Sequence of D3R (P35462 whole entry): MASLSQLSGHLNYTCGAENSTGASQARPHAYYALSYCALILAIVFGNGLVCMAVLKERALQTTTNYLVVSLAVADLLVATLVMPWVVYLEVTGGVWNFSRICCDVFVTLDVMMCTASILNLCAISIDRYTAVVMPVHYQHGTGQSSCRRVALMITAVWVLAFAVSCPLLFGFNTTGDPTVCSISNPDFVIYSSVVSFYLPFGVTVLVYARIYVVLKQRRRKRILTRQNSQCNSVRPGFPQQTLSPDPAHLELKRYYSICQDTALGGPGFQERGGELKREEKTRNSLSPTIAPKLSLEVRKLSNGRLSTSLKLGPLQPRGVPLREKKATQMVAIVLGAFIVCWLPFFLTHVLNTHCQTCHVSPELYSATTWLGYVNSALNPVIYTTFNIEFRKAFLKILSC

An IC50 of 0.56 ± 0.12 nM was found for CC(C)(C)c1nc(N2CCN(CCCCNC(=O)c3cn4ccccc4n3)CC2)cc(C(F)(F)F)n1 [Compound 113, N-(4-(4-(2-(tert-Butyl)-6-(trifluoromethyl)pyrimidin-4-yl)piperazin-1-yl)butyl)imidazo[1,2-a]pyridine-2-carboxamide] in this work.
